What was measured:
[1] = test system: DMBA induced mammary tumor; test: DMBA induced mammary tumor in female Sprague-Dawley rats; assay type: in vivo, rat
Source text: Encouraged by the excellent EGFR-TK inhibitory activity and anticancer effect of compound 7l against breast cancer cells which are further substantiated with docking analysis, prompted us to further analyze the effect of compound 7l in the in-vivo system. Therefore, we have utilized 7,12-Dimethylbenz(a)anthracene (DMBA), a polycyclic aromatic hydrocarbon, to induce the mammary carcinogenesis in the experimental animals to quantify the potential protective effect of compound 7l. The mechanism behind its action to induce the cancer is based on its metabolized product, i.e. the epoxide that readily forms DNA adducts which is responsible for malignant alteration. At the first instance, the effect of compound 7l was analyzed on the effect of body weight of the experimental animals.
Animal model. The female Sprague-Dawley rats (100–120 g) were obtained from the Institutional animal house after approval from the Institutional Animal Ethics Committee. The animals were kept in suitable cages with free access to food and water under a controlled temperature (24 ± 2 °C), humidity (60 ± 10%) with alternate light/dark cycle of 12 h. The entire experimental procedures involving animals were approved by the Institutional Animal Ethics Committees (IAEC) of SHUATS, in accordance and duly approved with CPCSEA (Committee for the Purpose of Control and Supervision of Experiments on Animals, Government of India. The authors confirm that all experiments were performed in accordance with relevant guidelines and regulations of SHUATS.
Initiation of breast carcinogenesis. The mammary carcinogenesis was induced in experimental rat using one-time subcutaneous administration of DMBA (25 mg) in emulsified form with the help of sunflower oil and saline to each rat.
Design of experiment. Experimental design. Total numbers of 30 animals were randomly divided into five groups and each group contains 6 animals. The various groups received different treatment as follows:
The DMBA (s.c.; 25 mg/rat) was administered to each rats near mammary gland at the end of the first week. The test drug was administered once in a day and was continued till the end of the experimental period. At the end of 16th week, the rats were fasted overnight and sacrificed by the cervical decapitation under influence of anesthesia. The blood samples were collected in and after centrifugation, the plasma was used for the further biochemical analysis. The liver and mammary tissues were excised immediately from the experimental rats and homogenized with suitable buffer, centrifuged and the resulting supernatant was used for biochemical estimations.
Biochemical Estimation. The remaining excised liver and mammary tissues were rinsed in ice-cold saline and known amount of the tissue were homogenized in 0.1 M Tris-HCl buffer (pH 7.4) at 4°C. The supernatant was collected as tissue homogenate and was used for the estimation of various biochemical parameters. The microsomal protein concentration was estimated by the method of Lowry et al.[33]; while, the concentration of plasma and mammary TBARS was estimated by the earlier reported method, [35] and the concentration of plasma and mammary tissue LOOH were estimated by the previous method. Moreover, the activity of the antioxidant enzyme system, such as SOD, CAT, GPX, GSH, CYP450, Cyt-b5, GST and GR activity in plasma and mammary tissue were determined by the earlier method given elsewhere[37]–[43].

[2] = biological target: T1, EGFR-TK (Homo sapiens, UniProt P00533); test: EGFR tyrosine kinase inhibitory activity (Kinase-Glo Plus luminescence); assay type: biochemical; details: at 10 µM; read-out: Percent of Inhibition, EGFR tyrosine kinase
T1 construct: 0.2 mg/mL Poly (Glu, Tyr) substrate, 10 mM ATP and EGFR
T1 sequence (P00533 25-1210): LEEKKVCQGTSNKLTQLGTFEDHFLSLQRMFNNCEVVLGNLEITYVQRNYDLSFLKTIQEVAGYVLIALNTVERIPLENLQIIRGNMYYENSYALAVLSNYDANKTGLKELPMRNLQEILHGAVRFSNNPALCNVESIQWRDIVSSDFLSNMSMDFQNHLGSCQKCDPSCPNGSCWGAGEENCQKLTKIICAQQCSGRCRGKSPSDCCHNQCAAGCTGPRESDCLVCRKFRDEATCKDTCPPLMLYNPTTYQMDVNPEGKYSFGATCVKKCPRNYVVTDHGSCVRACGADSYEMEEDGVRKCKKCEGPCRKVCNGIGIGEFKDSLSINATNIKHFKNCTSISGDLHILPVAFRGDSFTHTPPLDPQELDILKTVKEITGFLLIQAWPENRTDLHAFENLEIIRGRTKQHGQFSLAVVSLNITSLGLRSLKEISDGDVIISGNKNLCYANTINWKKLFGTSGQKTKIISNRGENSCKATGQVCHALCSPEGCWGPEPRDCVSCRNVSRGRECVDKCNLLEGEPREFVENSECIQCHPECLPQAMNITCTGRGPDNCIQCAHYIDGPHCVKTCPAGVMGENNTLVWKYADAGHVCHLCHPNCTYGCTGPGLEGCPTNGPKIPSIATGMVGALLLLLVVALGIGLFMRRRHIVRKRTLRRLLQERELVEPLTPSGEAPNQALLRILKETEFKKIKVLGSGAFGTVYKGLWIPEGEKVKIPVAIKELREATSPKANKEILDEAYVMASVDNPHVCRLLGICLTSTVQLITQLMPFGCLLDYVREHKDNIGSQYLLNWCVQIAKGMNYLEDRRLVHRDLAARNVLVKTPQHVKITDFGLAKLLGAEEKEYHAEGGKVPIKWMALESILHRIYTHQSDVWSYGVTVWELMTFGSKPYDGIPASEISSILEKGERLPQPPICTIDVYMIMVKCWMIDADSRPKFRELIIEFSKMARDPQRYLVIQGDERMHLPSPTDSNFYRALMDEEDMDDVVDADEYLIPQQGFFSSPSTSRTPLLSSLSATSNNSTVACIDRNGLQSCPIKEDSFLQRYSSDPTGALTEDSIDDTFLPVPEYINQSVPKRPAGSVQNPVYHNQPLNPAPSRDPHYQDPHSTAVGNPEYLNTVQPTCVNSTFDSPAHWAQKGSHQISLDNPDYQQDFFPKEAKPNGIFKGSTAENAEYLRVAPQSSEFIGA
Protocol: Kinase activity was determined using Kinase-Glo Plus luminescence kinase assay kit, by quantitating the amount of ATP remaining in the solution of kinase reaction. The luminescent signal is correlated with the residual amount present and it was inversely related with kinase activity. The tested compounds were diluted to 100 mM in 10% DMSO, then […] of the dilution was added to a 50 mL reaction. All of the enzymatic reactions were performed at 30 °C for 40 min, 50 mL of reaction mixture contains 10 mM MgCl2, 40 mM Tris, pH 7.4, 0.1 mg/mL BSA, 0.2 mg/mL Poly (Glu, Tyr) substrate, 10 mM ATP and EGFR. Incubate the plate for 5 min at r.t. then add 50 mL of Kinase-GloPlus Luminescence kinase assay to each reaction. ADP-Glo assay kit is the protein kinase assays used to determine IC50 values in which ADP generation was measured as it leads to an increase in luminescence signal. The reaction mixture was incubated in a 96-well plate at 30 °C for 30 min, after the incubation period add 25 mL of ADP-Glo reagent to terminate the assay. Shake the 96-well plate for 30 min at ambient temperature then incubate it, then add 50 mL of kinase detection reagent. Read the 96-well plate using the ADP-Glo Luminescence reader. All the assay components were added to the blank control except the substrate. By removing the blank control value you can obtain the corrected activity for each protein kinase target.

[3] = test system: HepG2 (Hepatocellular carcinoma); test: MTT in vitro cytotoxicity assay, HepG2; assay type: cell-based, human; details: Homo sapiens, NA: Not active
Protocol: (§1) The synthesized compounds were evaluated for in-vitro cytotoxic activity against various cell lines such as HeLa (cervical cancer), MCF-7 (breast cancer), HL-60 (Human promyelocytic leukemia), HepG2 (Hepatocellular carcinoma) and MCF 12A (normal epithelial cell) by the MTT assay method. […] The relationship between surviving fraction and drug concentration was plotted to obtain the survival curve of all the cancer cell lines HeLa, MCF-7, HL-60 and HepG2. The response parameter calculated was the IC50 values, which responds to the concentration required for 50% inhibition of cell viability. The in-vitro cytotoxic activity of the synthesized compounds is summarized Table 3.
(§2) The target compounds were subjected to in vitro cytotoxicity bioassay. In vitro cytotoxicity was determined using a standard MTT assay with protocol appropriate for the individual test system[29]–[31]. The four human cancer cell lines HeLa, MCF-7, HL-60, HepG2 and MCF-12A were cultured in the MEM medium supplemented with 10% FBS, 1% glutamine and […] gentamicin sulfate in a CO2 incubator in a humidified atmosphere of 5% CO2 and 95% air. The test compounds were prepared prior to the experiment by dissolving in 0.1% DMSO and diluted with medium. The cells were then exposed to different concentrations of drugs ([…]) in the volume of […]. Cells in the control wells received the same volume of medium containing 0.1% DMSO. After 24 h, the medium was removed and cell cultures were incubated with […] MTT reagent (1 mg/ml) for 5 h at 37 °C. The known number of cells ([…]) was incubated in a 5% CO2 incubator at 37 °C in the presence of different concentrations of test compounds. After 48 h of drug incubation, the MTT solution was added in each well and absorbance was recorded at 540 nm by an ELISA reader. The experiment was performed in triplicate. Cell survival was calculated as the percentage of MTT inhibition as % growth inhibition = 100 − (mean OD of individual test Group/Mean OD of each Control Group) × 100.

[4] = test system: HL-60 (Human promyelocytic leukemia); test: MTT in vitro cytotoxicity assay, HL-60; assay type: cell-based; details: Homo sapiens
Protocol: as §1, §2

[5] = DMBA rats, 5, 10, 15 mg/kg once a day
[6] = liver and mammary tissues of DMBA treated animals
[7] = plasma and mammary tissues of DMBA treated animals

SMILES: CCOC(=O)C1=C(C)N(c2nc(Nc3cccc(F)c3)nc(Nc3cccc(F)c3)n2)C(=S)NC1c1ccc(F)cc1 (stereo not shown) [7l, Ethyl 1-(4,6-bis((3-fluorophenyl)amino)-1,3,5-triazin-2-yl)-4-(4-fluorophenyl)-6-methyl-2-thioxo-1,2,3,4-tetrahydropyrimidine-5-carboxylate]
- Percentage of tumour incidence [1, 5]: efficient in reducing the percentage of incidence of tumour
- Tumour volume [1, 5]: significant reduction
- Body weight of experimental animals ([1]; DMBA rats, 5, 10, 15 mg/kg once a day, vs DMBA group): significantly improved
- Concentration of Phase I enzymes (CYP450 and Cyt-b5) [1, 6]: marked decline
- Concentration of Phase II enzymes (GST and GR) [1, 6]: significant upsurge
- Antioxidant status (SOD, CAT, GSH, GPx) [1, 7]: significant improvement
- Level of TBARS and LOOH (lipid peroxidation) [1, 7]: significant reduction
- inhibition at 10 µM [2]: 96.4%
- IC50 [3]: 31.2 ± 0.82 µM
- IC50 [4]: 23.1 ± 0.36 µM

Source: publication PMC5517562, “Design and discovery of novel monastrol-1,3,5-triazines as potent anti-breast cancer agent via attenuating Epidermal Growth Factor Receptor tyrosine kinase” (Scientific Reports, 2017)
